Assay results reported in US20110003868A1, “TREATMENT OF A NEUROPATHY WITH RAPID RELEASE AMINOPYRIDINE” (The UAB Research Foundation, priority 2003, published 2011).

Legend:
[1] = system: central nervous system; conditions: has been reported, cited from earlier work
[2] = system: subjects with GBS; experiment: Phase II double-blind, placebo controlled, crossover study; motor strength on 0-5 ordinal scale; assay type: in vivo, human patients; conditions: on average, fast release 4-AP 10 mg three times daily, oral capsule
Text: This is a Phase II double-blind, placebo controlled, crossover, dose-escalating study in subjects with […]. An initial trial of ten patients is randomized to one of the two treatment sequences (A or B) as shown below. The study population consists of subjects with GBS injury whose neurological status has been stable for at least eighteen months. Ten subjects are enrolled. Variables to be Collected: The measures of neurological status reported for this study are: • Motor strength was rated on the traditional 0-5 ordinal scale: • 0—absent motor strength • 1—trace motor strength • 2—can move the specified joint but only with gravity eliminated • 3—can move the joint against gravity but not against any opposing force • 4—can move the joint against opposing force but the strength is not normal for the person or symmetrical • 5—normal motor strength This scale is employed to measure the following motor strength for each of these joint motions on both the right and the left sides: hip flexion, hip adduction, hip abduction, knee flexion, knee extension, ankle dorsiflexion, ankle plantar flexion, shoulder abduction, elbow extension, elbow flexion, wrist flexion, and wrist extension. 4-AP is compounded in a #1 quick dissolution capsule containing 5 mg 4-AP and 235 mg lactose. […]

SMILES	Toxicity ([1]; compared with 4-AP or 2,3-DAP)	Central nervous system stimulation ([1]; compared with 4-AP)	Upper extremity strength increase relative to placebo [2] [%]	Lower extremity strength increase relative to placebo ([2]; hip abduction, hip adduction, hip flexion, knee flexion, ankle dorsiflexion and plantar flexion) [%]
Nc1ccnc(N)c1 [2,4-DAP, 2,4-diaminopyridine]	less toxicity than either 4-AP or 2,3-DAP	less central nervous system stimulation than 4-AP	–	–
Nc1ccncc1 [4-AP, 4-aminopyridine]	–	–	15	15
